From patent publication US20260262643A1, “HERBICIDAL BENZOXAZINES” (FMC CORPORATION, priority 2022, published 2026)

Assays:
barnyardgrass [1] = test: Test B flooded paddy test; format: in vivo, Echinochloa crus-galli; conditions: 250 g ai/ha, Flood, 13 days, 0 to 100 scale (0 no effect, 100 complete control)
In short: (§1)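 Application into standing water (3 cm above soil) at the two-leaf stage; flood depth held constant. Evaluation: day 13, visual comparison with controls, 0 = no injury, 100 = complete control.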

corn [2] = test: Test A preemergence; format: in vivo, Zea mays; conditions: visual injury after 10 days, 0 to 100 scale, 0 is no effect, 100 is complete control
In short: (§2)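 Plants were grown in loam and sand and treated preemergence or postemergence (one- to two-leaf stage, 2–10 cm) with compound in solvent plus surfactant. Response was scored against untreated controls after 10 greenhouse days, where 0 means no effect and 100 complete control.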

soybean [3] = test: Test A preemergence; format: in vivo, Glycine max; conditions: visual injury after 10 days, 0 to 100 scale, 0 is no effect, 100 is complete control
In short: as §2

blackgrass [4] = test: Test A postemergence; format: in vivo, Alopecurus myosuroides; conditions: postemergence, 10 days
In short: as §2

foxtail, giant [5] = test: Test A postemergence; format: in vivo, Setaria faberi; conditions: postemergence, 10 days
In short: as §2

ryegrass, Italian [6] = test: Test A preemergence; format: in vivo, Lolium multiflorum; conditions: visual injury after 10 days, 0 to 100 scale, 0 is no effect, 100 is complete control
In short: as §2

wheat [7] = test: Test A preemergence; format: in vivo, Triticum aestivum; conditions: visual injury after 10 days, 0 to 100 scale, 0 is no effect, 100 is complete control
In short: as §2

pigweed, palmer [8] = test: Test A postemergence; format: in vivo, Amaranthus palmeri; conditions: postemergence, 10 days
In short: as §2

pigweed, palmer [9] = test: Test A preemergence; format: in vivo, Amaranthus palmeri; conditions: visual injury after 10 days, 0 to 100 scale, 0 is no effect, 100 is complete control
In short: as §2

horseweed = test: Test A postemergence; format: in vivo, Erigeron canadensis; conditions: postemergence, 10 days
In short: as §2

kochia [10] = test: Test A postemergence; format: in vivo, Bassia scoparia; conditions: postemergence, 10 days
In short: as §2

corn [11] = test: Test A postemergence; format: in vivo, Zea mays; conditions: postemergence, 10 days
In short: as §2

rice = test: Test B flooded paddy test; format: in vivo, Oryza sativa; conditions: 250 g ai/ha, Flood, 13 days, 0 to 100 scale (0 no effect, 100 complete control)
In short: as §1

wheat [12] = test: Test A postemergence; format: in vivo, Triticum aestivum; conditions: postemergence, 10 days
In short: as §2

galium = test: Test A postemergence; format: in vivo, Galium aparine; conditions: postemergence, 10 days
In short: as §2

ryegrass, Italian [13] = test: Test A postemergence; format: in vivo, Lolium multiflorum; conditions: postemergence, 10 days
In short: as §2

kochia [14] = test: Test A preemergence; format: in vivo, Bassia scoparia; conditions: visual injury after 10 days, 0 to 100 scale, 0 is no effect, 100 is complete control
In short: as §2

barnyardgrass [15] = test: Test A preemergence; format: in vivo, Echinochloa crusgalli; conditions: visual injury after 10 days, 0 to 100 scale, 0 is no effect, 100 is complete control
In short: as §2

blackgrass [16] = test: Test A preemergence; format: in vivo, Alopecurus myosuroides; conditions: visual injury after 10 days, 0 to 100 scale, 0 is no effect, 100 is complete control
In short: as §2

foxtail, giant [17] = test: Test A preemergence; format: in vivo, Setaria faberi; conditions: visual injury after 10 days, 0 to 100 scale, 0 is no effect, 100 is complete control
In short: as §2

ducksalad = test: Test B flooded paddy test; format: in vivo, Heteranthera limosa; conditions: 250 g ai/ha, Flood, 13 days, 0 to 100 scale (0 no effect, 100 complete control)
In short: as §1

oat, wild [18] = test: Test A postemergence; format: in vivo, Avena fatua; conditions: postemergence, 10 days
In short: as §2

soybean [19] = test: Test A postemergence; format: in vivo, Glycine max; conditions: postemergence, 10 days
In short: as §2

ragweed [20] = test: Test A preemergence; format: in vivo, Ambrosia artemisiifolia; conditions: visual injury after 10 days, 0 to 100 scale, 0 is no effect, 100 is complete control
In short: as §2

barnyardgrass [21] = test: Test A postemergence; format: in vivo, Echinochloa crusgalli; conditions: postemergence, 10 days
In short: as §2

ragweed [22] = test: Test A postemergence; format: in vivo, Ambrosia artemisiifolia; conditions: postemergence, 10 days
In short: as §2

oat, wild [23] = test: Test A preemergence; format: in vivo, Avena fatua; conditions: visual injury after 10 days, 0 to 100 scale, 0 is no effect, 100 is complete control
In short: as §2

sedge, umbrella = test: Test B flooded paddy test; format: in vivo, Cyperus difformis; conditions: 250 g ai/ha, Flood, 13 days, 0 to 100 scale (0 no effect, 100 complete control)
In short: as §1

[24] = 125 g ai/ha, 0 to 100 scale, 0 no effect, 100 complete control
[25] = 500 g ai/ha, visual injury, 0 to 100 scale (0 no effect, 100 complete control)

## COCCc1ncn(-c2cccc(C(=O)N3C[C@H](C)Oc4c(C)cccc43)c2)n1 [Compound 113]
Barnyardgrass [1]
  Plant response rating, Barnyardgrass: 45
Corn [2]; 125 g ai/ha
  Plant response rating, Corn: 20
Corn [2]; 500 g ai/ha
  Plant response rating, Corn: 90
Soybean [3]; 125 g ai/ha
  Plant response rating, Soybean: 30
Soybean [3]; 500 g ai/ha
  Plant response rating, Soybean: 80
Blackgrass [4]; [24]
  Blackgrass plant response rating: 80
Blackgrass [4]; [25]
  Plant response rating, Blackgrass: 90
foxtail, giant [5]; [24]
  Foxtail, Giant plant response rating: 60
foxtail, giant [5]; [25]
  Plant response rating, Foxtail, Giant: 90
ryegrass, Italian [6]; 125 g ai/ha
  Plant response rating, Ryegrass, Italian: 90
ryegrass, Italian [6]; 500 g ai/ha
  Plant response rating, Ryegrass, Italian: 100
Wheat [7]; 125 g ai/ha
  Plant response rating, Wheat: 80
Wheat [7]; 500 g ai/ha
  Plant response rating, Wheat: 90
pigweed, palmer [8]; [24]
  Pigweed, Palmer plant response rating: 30
pigweed, palmer [8]; [25]
  Plant response rating, Pigweed, Palmer: 80
pigweed, palmer [9]; 125 g ai/ha
  Plant response rating, Pigweed, Palmer: 90
pigweed, palmer [9]; 500 g ai/ha
  Plant response rating, Pigweed, Palmer: 100
horseweed; [24]
  Horseweed plant response rating: 10
horseweed; [25]
  Plant response rating, Horseweed: 30
Kochia [10]; [24]
  Kochia plant response rating: 40
Kochia [10]; [25]
  Plant response rating, Kochia: 90
Corn [11]; [24]
  Corn plant response rating: 90
Corn [11]; [25]
  Plant response rating, Corn: 90
rice
  Plant response rating, Rice: 0
Wheat [12]; [24]
  Wheat plant response rating: 50
Wheat [12]; [25]
  Plant response rating, Wheat: 80
galium; [24]
  Galium plant response rating: 90
galium; [25]
  Plant response rating, Galium: 100
ryegrass, Italian [13]; [24]
  Ryegrass, Italian plant response rating: 50
ryegrass, Italian [13]; [25]
  Plant response rating, Ryegrass, Italian: 100
Kochia [14]; 125 g ai/ha
  Plant response rating, Kochia: 60
Kochia [14]; 500 g ai/ha
  Plant response rating, Kochia: 100
Barnyardgrass [15]; 125 g ai/ha
  Plant response rating, Barnyardgrass: 90
Barnyardgrass [15]; 500 g ai/ha
  Plant response rating, Barnyardgrass: 100
Blackgrass [16]; 125 g ai/ha
  Plant response rating, Blackgrass: 70
Blackgrass [16]; 500 g ai/ha
  Plant response rating, Blackgrass: 90
foxtail, giant [17]; 125 g ai/ha
  Plant response rating, Foxtail, Giant: 100
foxtail, giant [17]; 500 g ai/ha
  Plant response rating, Foxtail, Giant: 100
ducksalad
  Plant response rating, Ducksalad: 65
oat, wild [18]; [24]
  Oat, Wild plant response rating: 70
oat, wild [18]; [25]
  Plant response rating, Oat, Wild: 80
Soybean [19]; [24]
  Soybean plant response rating: 100
Soybean [19]; [25]
  Plant response rating, Soybean: 100
Ragweed [20]; 125 g ai/ha
  Plant response rating, Ragweed: 0
Ragweed [20]; 500 g ai/ha
  Plant response rating, Ragweed: 70
Barnyardgrass [21]; [24]
  Barnyardgrass plant response rating: 60
Barnyardgrass [21]; [25]
  Plant response rating, Barnyardgrass: 90
Ragweed [22]; [24]
  Ragweed plant response rating: 50
Ragweed [22]; [25]
  Plant response rating, Ragweed: 50
oat, wild [23]; 125 g ai/ha
  Plant response rating, Oat, Wild: 80
oat, wild [23]; 500 g ai/ha
  Plant response rating, Oat, Wild: 90
sedge, umbrella
  Plant response rating, Sedge, Umbrella: 80
